Patent US20130302470A1, “L-amino-acid-containing feed additive in the form of fermentation-broth-based granules, and processes for its preparation” (EVONIK INDUSTRIES AG, priority 2012, published 2013)

Legend:
[1] = Hydrothermal stability, Experiment 9.2: pelleted aquafeed (lysine recovery); assay type: physicochemical; conditions: pelleting process
Excerpt: (§1) So as to be able to assess what is known as the hydrothermal stability of the additives, and to compare them with each other, the production processes for producing pelleted and extruded aquafeed was reproduced on a small scale. In each case two feed blends which differ only in respect of the L-lysine additive were employed, mixture A being supplemented with 0.50% granular feed additive according to the present invention and mixture B with 0.32% Lys×HCl, which corresponded in each case to identical lysine base concentrations. The granular feed additive according to the invention contained 50.7% by weight of lysine in the form of lysine sulphate and 10% by weight of biomass.
The process parameters, such as, for example, residence time, temperature or water content, were set at values which are typically used in practice. During the experiments, samples of the feed blend were taken after the respective individual process steps and subjected to extensive amino acid analysis. The hydrothermal stabilities of the test additives upon processing in the processes in question can be assessed relative to one another via the recovery rates.
The feed blends corresponded to representative state-of-the-art formulas. […]
In the amino acid determination, the supplemented amino acid lysine was determined. […] Thereafter, the amino acids were subjected to photometric quantitation at 570 nm. […]

rainbow trout = conditions: aquafeed with different lysine concentrations, FIG. 8; cited from earlier work
[2] = Hydrothermal stability, Experiment 9.1: extruded aquafeed (lysine recovery); assay type: physicochemical
Excerpt: as §1
The process parameters, such as, for example, residence time, temperature or water content, were set at values which are typically used in practice. […] The hydrothermal stabilities of the test additives upon processing in the processes in question can be assessed relative to one another via the recovery rates. […]
The hydrothermal stability of the granules according to the present invention was compared with the hydrothermal stability of Lys×HCl. The hydrothermal stability of the additives for extruded shrimp/prawn feed was examined and assessed during the entire respective process. […]
In the amino acid determination, the supplemented amino acid lysine was determined. […]

## Cl.NCCCC[C@H](N)C(=O)O [lysine HCl, L-lysine monohydrochloride]
[1]
  Lysine loss upon pelleting: approximately 3.3%
Rainbow trout
  Effect of the nature of the lysine source on the weight increase of trout: no effect on the weight increase
[2]; extrusion process
  Lysine lost during the processing to give shrimp/prawn feed: 8.6%
[2]; extrusion, lysine sulphate granules versus lysine HCl
  Stability of the lysine in the shrimp/prawn feed production process (comparison): markedly more unstable
